Columns and labels:
[1] = test system: Split3WJ.2 up_5IB+Split3WJ.2_down_3FAM (trans 3WJ as 1:1 mix); test: Fluorescence quenching binding assay (FAM / Iowa Black); settings: two concentration points
Experimental: (§1) This assay will be used to test binding of compounds for RNA three way junction (such as a 38 nt construct). This is a fluorescence quenching assay utilizing FAM as fluorescence tag and Iowa Black as quencher. Tags are attached at the 3′ and 5′ end, respectively. Stable formation of MW upon compound binding would lead to quenching of the FAM fluorescence due to close proximity of the Iowa Black tag. Assay readout: FAM (485-520 nm) Fluorescence Intensity.
(§2) Assay sample buffer used: 10 mM CacoK pH 7.2, 30 mM NaCl. Buffer preparation in Dnase/Rnase Free distilled water (Gibco Life Technologies).
(§3) Dilute the RNA 1:10 (final 10 μM) in Assay Buffer.
(§4) Heat up the diluted RNA up to 90° C. for 5 min (sealed Eppendorf Tube).
(§5) Cool down the RNA probe slowly to RT.
(§6) Dilute the compounds to 800 μM in DMSO (Assay: 8 μM).
(§7) Final concentrations in the sample: 1-10 μM RNA, 8 μM compound, 1% DMSO
(§8) Pipet 25 μL Sample Solution into Greiner cat #784076, black, 384
(§9) Measure the 96 plate with the LightCycler480 (Channel: 485/520 nm).
(§10) The fluorescence quenching experiment was repeated for compounds Ark0000013 and Ark0000014 to measure binding with:
C) Split3WJ.2 up_5IB+Split3WJ.2_down_3FAM (trans 3WJ as 1:1 mix)
(§11) Both cmpds were tested at two concentration points in the fluorescence quenching assays to assess effect upon RNA constructs utilized in the study. […]

[2] = test system: Split3WJ.1_up_5IB+Split3WJ.1_down_3FAM (trans 3WJ as 1:1 mix); test: as above; settings: two concentration points
Experimental: as §1, §2, §3, §4, §5, §6, §7, §8, §9, §10
B) Split3WJ.1_up_5IB+Split3WJ.1_down_3FAM (trans 3WJ as 1:1 mix)
as §11

RNA3WJ_2.1.0_5IB_3FAM = test: Thermal shift binding assay; settings: 1 μM RNA, 8 μM compound, 10 mM CacoK pH 7.2, 30 mM NaCl
From the text: (§12) Purpose: Test binding of compounds for RNA three way junction (for example, a construct of 38 nt). Thermal shift assay based on established fluorescence quenching assay utilizing FAM as fluorescence tag and Iowa Black as quencher. Tags were attached at the 3′ and 5′ end, respectively. Stable formation of 3WJ upon compound binding would lead to quenching of the FAM fluorescence due to close proximity of the Iowa Black tag. Thermal unfolding leads to increase of fluorescence emission. Assay readout: FAM (465-510 nm) Thermal Shift.
as §2, §3, §4, §5, §6
(§13) Final concentrations in the sample: 1 μM RNA, 8 μM compound, 1% DMSO
(§14) Pipet 20 μL Sample Solution into Roche, Light Cycler480 Multiwell Plate96, white, REF 04729692001.
(§15) Measure the 96 plate with the LightCycler480 (Channel: 480/510 nm; Temperature: 41-91° C.).
(§16) Analyse measurement-data with the MeltingCurveGenotyping Mode.
(§17) Settings: Acquisition mode: continuous; Ramp rate: 0.1° C./sec; Acquisition: 6° C.
(§18) Curves are fitted with raw and normalized data.
(§19) Melting curves analysis show melting temperature (Tm) of ˜51° C. Range of RNA concentrations was tested and assay window was determined (conc. range of 0.5-1 μM yields best results). The choice of buffer also affected the Tm. RNA constructs were tested under different buffer conditions (especially in presence of salt) in the thermal shift assay. […] CacoK with 30 mM salt at 1 μM RNA conc. was used to assess compound effects on 3WJ stability. […] These conditions were used for screening test compounds.

RNA3WJ_1.1.0_5IB_3FAM = test: Thermal shift binding assay; settings: 1 μM RNA, 8 μM compound, 10 mM CacoK pH 7.2, 30 mM NaCl
From the text: as §12, §2, §3, §4, §5, §6, §13, §14, §15, §16, §17, §18, §19

RNA3WJ_2.0.0_5IB_3FAM = test: Thermal shift binding assay; settings: 1 μM RNA, 8 μM compound, 10 mM CacoK pH 7.2, 30 mM NaCl
From the text: as §12, §2, §3, §4, §5, §6, §13, §14, §15, §16, §17, §18, §19

RNA3WJ_1.1.1_5IB_3FAM = test: Thermal shift binding assay; settings: 1 μM RNA, 8 μM compound, 10 mM CacoK pH 7.2, 30 mM NaCl
From the text: as §12, §2, §3, §4, §5, §6, §13, §14, §15, §16, §17, §18, §19

[3] = test system: Split3WJ.2_up_5IB+Split3WJ.2_down_3FAM (trans 3WJ as 1:1 mix; Split3WJ_2); test: Thermal shift binding assay; settings: 1 μM RNA, 8 μM compound, 10 mM CacoK pH 7.2, 30 mM NaCl
From the text: as §12, §2, §3, §4, §5, §6, §13, §14, §15, §16, §17, §18, §19
(§20) Compounds Ark0000013 and Ark0000014 were also tested in the thermal shift assay against three RNA 3WJ constructs, A) RNA3WJ_1.0.0_5IB_3FAM (cis 3WJ with one unpaired nucleotide); B) Split3WJ.1_up_5IB+Split3WJ.1_down_3FAM (trans 3WJ as 1:1 mix); and C) Split3WJ.2_up_5IB+Split3WJ.2_down_3FAM (trans 3WJ as 1:1 mix).

[4] = test system: Split3WJ.1_up_5IB+Split3WJ.1_down_3FAM (trans 3WJ as 1:1 mix; Split3WJ_1); test: Thermal shift binding assay; settings: 1 μM RNA, 8 μM compound, 10 mM CacoK pH 7.2, 30 mM NaCl
From the text: as §12, §2, §3, §4, §5, §6, §13, §14, §15, §16, §17, §18, §19, §20

[5] = test system: RNA3WJ_1.0.0_5IB_3FAM (cis 3WJ with one unpaired nucleotide); test: Thermal shift binding assay; settings: 1 μM RNA, 8 μM compound, 10 mM CacoK pH 7.2, 30 mM NaCl
From the text: as §12, §2, §3, §4, §5, §6, §13, §14, §15, §16, §17, §18, §19, §20

[6] = test system: RNA3WJ_0.0.0_5IB_3FAM (3WJ_0.0.0_5IB_3FAM RNA construct); test: Thermal shift binding assay
From the text: as §12, §2, §3, §4, §5
(§21) Dilute the compounds to 800 μM in DMSO (Assay: 8 μM). […]
as §14, §15, §16, §17, §18, §19

RNA3WJ_3.0.0_5IB_3FAM = test: Thermal shift binding assay; settings: 1 μM RNA, 8 μM compound, 10 mM CacoK pH 7.2, 30 mM NaCl
From the text: as §12, §2, §3, §4, §5, §21, §14, §15, §16, §17, §18, §19

[7] = test system: RNA3WJ_1.0.0_5IB_3FAM (cis 3WJ with one unpaired nucleotide); test: Fluorescence quenching binding assay (FAM / Iowa Black); settings: two concentration points
Experimental: as §1, §2, §3, §4, §5, §6, §7, §8, §9, §10
A) RNA3WJ_1.0.0_5IB_3FAM (cis 3WJ with one unpaired nucleotide)
as §11

[8] = 1 μM RNA, 8 μM compound, 10 mM CacoK pH 7.2, 30 mM NaCl

NCCCCCCCNC(=O)c1ccc2c(c1)C1c3cc(C(=O)NCCCCCCCN)ccc3C2c2ccc(C(=O)NCCCCCCCN)cc21 [Ark000014, N^2,N^7,N^15-tris(7-aminoheptyl)-9,10-dihydro-9,10-[1,2]benzenoanthracene-2,7,15-tricarboxamide]
fluorescence quenching effect (FAM fluorescence signal) [1]: Split3WJ_2 shows larger effect | fluorescence quenching effect (FAM fluorescence signal) [2]: smaller effect | Melting temp + cmpd (RNA3WJ_2.1.0_5IB_3FAM): 42.0 °C | Temp. Shift (RNA3WJ_2.1.0_5IB_3FAM): 0.1 °C | Melting temp + cmpd (RNA3WJ_1.1.0_5IB_3FAM): 65.1 °C | Temp. Shift (RNA3WJ_1.1.0_5IB_3FAM): 1.8 °C | Melting temp + cmpd (RNA3WJ_2.0.0_5IB_3FAM): 64.4 °C | Temp. Shift (RNA3WJ_2.0.0_5IB_3FAM): 2.2 °C | Melting temp + cmpd (RNA3WJ_1.1.1_5IB_3FAM): 64.3 °C | Temp. Shift (RNA3WJ_1.1.1_5IB_3FAM): 2.1 °C | Melting temp + cmpd [3]: 44.7 °C | Temp. Shift [3]: ~1 °C | Melting temp + cmpd ([3]; listed as Ark0000014): 44.0 °C | Temp. Shift ([3]; listed as Ark0000014): −0.3 °C | Melting temp + cmpd [4]: 38.8 °C | Temp. Shift [4]: ~1 °C | Melting temp + cmpd ([4]; listed as Ark0000014): 37.8 °C | Temp. Shift ([4]; listed as Ark0000014): 0.3 °C | Melting temp + cmpd [5]: 68.4 °C | Temp. Shift [5]: ~3 °C | Melting temp + cmpd ([5]; listed as Ark0000014): 68.1 °C | Temp. Shift ([5]; listed as Ark0000014): 2.5 °C | Melting temp + cmpd [6, 8]: 61.5 °C | Temp. Shift [6, 8]: 1.6 °C | Melt. Temp. with cmpd ([6]; RNA sequence 3WJ_0.0.0_5IB_FAM, melting temperature in presence of compound): 61.5 °C | Shift melt. Temp. ([6]; RNA sequence 3WJ_0.0.0_5IB_FAM, with cmpd minus without cmpd): +1.6 °C | Melting temp + cmpd (RNA3WJ_3.0.0_5IB_3FAM): 63.9 °C | Temp. Shift (RNA3WJ_3.0.0_5IB_3FAM): 1.9 °C | fluorescence quenching effect (FAM fluorescence signal) [7]: smaller effect
